Assay results published in patent US10829484B2, “Compounds and methods for kinase modulation, and indications therefor” (Plexxikon Inc., priority 2015, dated 2020).
Numbering of substitutions follows the chain as printed.

Experiments:
BaF3-FLT3-ITD-F691L = molecular target: T1, BaF3-FLT3-ITD-F691L (Homo sapiens, UniProt P36888, INS600HVDFREYEYD/F691L, cells depend on it); experiment: CTB viability assay CS0047, BaF3-FLT3-ITD-F691L; format: cell-based, murine; settings: BaF3-FLT3-ITD-F691L cells, CellTiter Blue viability, 72 hours; read-out: Cell Assay: CS0047:BaF3-FLT3-ITD-F691L CTB:IC50
T1 sequence (P36888 with tags, fused parts or gaps INS600HVDFREYEYD/F691L): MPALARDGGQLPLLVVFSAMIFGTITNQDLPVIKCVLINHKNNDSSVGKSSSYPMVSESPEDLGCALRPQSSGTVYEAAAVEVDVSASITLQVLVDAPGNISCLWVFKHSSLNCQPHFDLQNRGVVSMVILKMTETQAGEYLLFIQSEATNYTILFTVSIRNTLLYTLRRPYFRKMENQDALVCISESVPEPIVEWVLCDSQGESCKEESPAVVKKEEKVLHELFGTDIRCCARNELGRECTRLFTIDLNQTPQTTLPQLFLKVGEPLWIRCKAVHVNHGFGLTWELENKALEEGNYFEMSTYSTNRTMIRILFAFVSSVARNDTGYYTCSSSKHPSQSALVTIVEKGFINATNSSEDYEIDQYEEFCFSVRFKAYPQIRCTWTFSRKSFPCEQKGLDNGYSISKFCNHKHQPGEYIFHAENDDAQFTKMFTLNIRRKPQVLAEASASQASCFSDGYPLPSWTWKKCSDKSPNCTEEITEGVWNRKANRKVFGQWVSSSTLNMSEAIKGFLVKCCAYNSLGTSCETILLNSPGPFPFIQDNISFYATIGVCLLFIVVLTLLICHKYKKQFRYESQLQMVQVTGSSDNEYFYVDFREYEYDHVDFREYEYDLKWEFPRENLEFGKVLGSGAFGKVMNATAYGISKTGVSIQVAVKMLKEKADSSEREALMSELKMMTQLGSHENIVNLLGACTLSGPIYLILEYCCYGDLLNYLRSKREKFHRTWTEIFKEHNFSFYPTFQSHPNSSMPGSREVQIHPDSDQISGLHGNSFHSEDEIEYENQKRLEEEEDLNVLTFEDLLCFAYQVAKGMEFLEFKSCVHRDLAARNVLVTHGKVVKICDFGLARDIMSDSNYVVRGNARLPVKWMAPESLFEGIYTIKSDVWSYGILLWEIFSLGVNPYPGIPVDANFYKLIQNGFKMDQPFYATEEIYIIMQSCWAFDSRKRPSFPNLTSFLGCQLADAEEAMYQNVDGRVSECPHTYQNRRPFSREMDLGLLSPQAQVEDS
Text: (§1) Gene constructs containing the human FLT3 sequences FLT3-ITD, FLT3-ITD-F691L, FLT3-ITD-D835V and FLT3-D835V were synthesized by reverse translation of the human protein sequences, with codons optimized for mammalian expression. Sequence of the internal tandem duplication (ITD) was based on the MV4-11 ITD sequence. Synthetic DNA constructs were cloned into the pMSCV puro retroviral vector (Clontech) and transfected into the EcoPack2-293 packaging cell line (Clontech) to generate retroviruses that contain the different FLT3 constructs. Viruses were transduced into the IL-3-dependent, murine […] cell line, Ba/F3, and selected for puromycin resistance and IL-3 independence. All cell lines were cloned by limiting dilution and clones were used for all subsequent cell assays. Overexpression of the FLT3 mutants in the Ba/F3 cells results in constitutive phosphorylation of the exogenous FLT3 protein, which is required for IL-3 independence.
(§2) Cell lines were serum starved overnight in media containing 0.5% FBS, plated at 15,000 cells/well in 96-well white-walled tissue culture plates, and 3-fold serial dilutions of test compounds of Formula I were added for 72 hours at 37° C. CellTiter Blue (CTB, Promega) was added and incubated for an additional 3 hours at 37° C. Fluorescence was read at 560 nm excitation, 590 nm emission. Wells with CTB+media only were used for background subtraction, and the fluorescence of compound-treated cells was normalized to the fluorescence of DMSO-treated cells. IC50s were determined using Igor Pro software. All compounds are assayed in duplicate cell plates.

BaF3-FLT3-ITD-D835V = molecular target: T2, BaF3-FLT3-ITD-D835V (Homo sapiens, UniProt P36888, INS600HVDFREYEYD/D835V, cells depend on it); experiment: CTB viability assay CS0048, BaF3-FLT3-ITD-D835V; format: cell-based, murine; settings: BaF3-FLT3-ITD-D835V cells, CellTiter Blue viability, 72 hours; read-out: Cell Assay: CS0048: BaF3-FLT3-ITD-D835V CTB:IC50
T2 sequence (P36888 with tags, fused parts or gaps INS600HVDFREYEYD/D835V): T1 sequence (P36888 with tags, fused parts or gaps INS600HVDFREYEYD/F691L) with L701F, D845V
Text: as §1, §2

Question: For `Cc1c(Nc2ncc(-c3ccc(CC(=O)Nc4cc(C5(C(F)(F)F)CC5)on4)c(F)c3)cn2)ncn1C` [P-075, 2-[4-[2-[(l,5-dimethylimidazol-4-yl)amino]pyrimidin-5-yl]-2-fluorophenyl]-N-[5-[1-(trifluoromethyl)cyclopropyl]isoxazol-3-yl]acetamide], which GI50 (BaF3-FLT3-ITD-F691L) is on record?
Answer: 10 to 50 nM

Question: And the GI50 (BaF3-FLT3-ITD-D835V)?
Answer: 10 to 50 nM

Question: How did the GI50 (BaF3-FLT3-ITD-F691L) turn out when `C=CC(=O)Nc1nn(C)cc1Nc1ncc(-c2ccc(CC(=O)Nc3cc(C4(C(F)(F)F)CC4)on3)c(F)c2)cn1` [P-125, N-[4-[[5-[3-fluoro-4-[2-oxo-2-[[5-[1-(trifluoromethyl)cyclopropyl]isoxazol-3-yl]amino]ethyl]phenyl]pyrimidin-2-yl]amino]-1-methyl-pyrazol-3-yl] prop-2-enamide] was run?
Answer: 10 to 50 nM

Question: What about the GI50 (BaF3-FLT3-ITD-D835V) of the same compound?
Answer: 50 to 100 nM

Question: For `CC(C)c1nn(C)cc1Nc1ncc(-c2ccc(CC(=O)Nc3cc(C4(C(F)(F)F)CC4)on3)c(F)c2)cn1` [P-168, 2-[2-fluoro-4-[2-[(3-isopropyl-1-methyl-pyrazol-4-yl)amino]pyrimidin-5-yl]phenyl]-N-[5-[1-(trifluoromethyl)cyclopropyl]isoxazol-3-yl]acetamide], which GI50 (BaF3-FLT3-ITD-F691L) is on record?
Answer: 10 to 50 nM

Question: What about the GI50 (BaF3-FLT3-ITD-D835V) of the same compound?
Answer: 10 to 50 nM

Question: For `CCn1cncc1Nc1ncc(-c2ccc(CC(=O)Nc3cc(C4(C(F)(F)F)CC4)on3)c(F)c2)cn1` [P-147, 2-[4-[2-[(3-ethylimidazol-4-yl)amino]pyrimidin-5-yl]-2-fluoro-phenyl]-N-[5-[1-(trifluoromethyl)cyclopropyl]isoxazol-3-yl]acetamide], which GI50 (BaF3-FLT3-ITD-F691L) is on record?
Answer: 10 to 50 nM

Question: What about the GI50 (BaF3-FLT3-ITD-D835V) of the same compound?
Answer: 50 to 100 nM

Question: Which results are given for `COc1nn(C2CC2)cc1Nc1ncc(-c2ccc(CC(=O)Nc3cc(C4(C(F)(F)F)CC4)on3)c(F)c2)c(C)n1` [P-126, 2-[4-[2-[(1-cyclopropyl-3-methoxypyrazol-4-yl)amino]-4-methyl-pyrimidin-5-yl]-2-fluorophenyl]-N-[5-[1-(trifluoromethyl)cyclopropyl]isoxazol-3-yl]acetamide]?
Answer: GI50 (BaF3-FLT3-ITD-F691L): 10 to 50 nM; GI50 (BaF3-FLT3-ITD-D835V): 10 to 50 nM

Question: Which GI50 (BaF3-FLT3-ITD-F691L) does the source give for `Cc1nn(C2CC2)cc1Nc1ncc(-c2ccc(CC(=O)Nc3cc(C4(C(F)(F)F)CC4)on3)c(F)c2)c(C)n1` [P-130, 2-[4-[2-[(1-cyclopropyl-3-methylpyrazol-4-yl)amino]-4-methyl-pyrimidin-5-yl]-2-fluorophenyl]-N-[5-[1-(trifluoromethyl)cyclopropyl]isoxazol-3-yl]acetamide] here?
Answer: 10 to 50 nM

Question: And the GI50 (BaF3-FLT3-ITD-D835V)?
Answer: 10 to 50 nM

Question: Which GI50 (BaF3-FLT3-ITD-F691L) does the source give for `Cn1cc(Nc2ncc(-c3ccc(CC(=O)Nc4cc(C5(C(F)(F)F)CC5)on4)c(F)c3)c(C(F)(F)F)n2)cn1` [P-027, 2-[2-fluoro-4-[2-[(1-methylpyrazol-4-yl)amino]-4-(trifluoromethyl)pyrimidin-5-yl]phenyl]-N-[5-[1-(trifluoromethyl)cyclopropyl]isoxazol-3-yl]acetamide] here?
Answer: 50 to 100 nM

Question: What about the GI50 (BaF3-FLT3-ITD-D835V) of the same compound?
Answer: 10 to 50 nM

Question: Which results are given for `O=C(Cc1ccc(-c2cnc(Nc3cnccn3)nc2)cc1F)Nc1cc(C2(C(F)(F)F)CC2)on1` [P-086, 2-[2-fluoro-4-[2-(pyrazin-2-ylamino)pyrimidin-5-yl]phenyl]-N-[5-[1-(trifluoromethyl)cyclopropyl]isoxazol-3-yl]acetamide]?
Answer: GI50 (BaF3-FLT3-ITD-F691L): 10 to 50 nM; GI50 (BaF3-FLT3-ITD-D835V): 10 to 50 nM

Question: `Cn1cncc1Nc1ncc(-c2ccc(CC(=O)Nc3cc(C4(C(F)(F)F)CC4)on3)c(F)c2)cn1` [P-132, 2-[2-fluoro-4-[2-[(3-methylimidazol-4-yl)amino]pyrimidin-5-yl]phenyl]-N-[5-[1-(trifluoromethyl)cyclopropyl]isoxazol-3-yl]acetamide] was tested. Which GI50 (BaF3-FLT3-ITD-F691L) did it give?
Answer: 10 to 50 nM

Question: And the GI50 (BaF3-FLT3-ITD-D835V)?
Answer: 10 to 50 nM

Question: What does the source list for `CCc1nn(C2CCS(=O)(=O)C2)cc1Nc1ncc(-c2ccc(CC(=O)Nc3cc(C4(C(F)(F)F)CC4)on3)c(F)c2)cn1` (centres unmarked) [P-012, 2-[4-[2-[[1-(1,1-dioxothiolan-3-yl)-3-ethylpyrazol-4-yl]amino]pyrimidin-5-yl]-2-fluorophenyl]-N-[5-[1-(trifluoromethyl)cyclopropyl]isoxazol-3-yl]acetamide]?
Answer: GI50 (BaF3-FLT3-ITD-F691L): 10 to 50 nM; GI50 (BaF3-FLT3-ITD-D835V): 10 to 50 nM

Question: Which results are given for `Cc1nc(Nc2cnn(C3CC3)c2C)ncc1-c1ccc(CC(=O)Nc2cc(C3(C(F)(F)F)CC3)on2)c(F)c1` [P-129, 2-[4-[2-[(1-cyclopropyl-5-methylpyrazol-4-yl)amino]-4-methyl-pyrimidin-5-yl]-2-fluorophenyl]-N-[5-[1-(trifluoromethyl)cyclopropyl]isoxazol-3-yl]acetamide]?
Answer: GI50 (BaF3-FLT3-ITD-F691L): 10 to 50 nM; GI50 (BaF3-FLT3-ITD-D835V): 10 to 50 nM

Question: For `COc1nc(Nc2cn(C)nc2C)ncc1-c1ccc(CC(=O)Nc2cc(C3(C(F)(F)F)CC3)on2)c(F)c1` [P-117, 2-[4-[2-[(l,3-dimethylpyrazol-4-yl)amino]-4-methoxy-pyrimidin-5-yl]-2-fluorophenyl]-N-[5-[1-(trifluoromethyl)cyclopropyl]isoxazol-3-yl]acetamide], which GI50 (BaF3-FLT3-ITD-F691L) is on record?
Answer: 10 to 50 nM

Question: What does the source list for `Cc1nn(C)cc1Nc1ncc(-c2ccc(CC(=O)Nc3cc(C4(C(F)(F)F)CC4)on3)c(F)c2)cc1C#N` [P-156, 2-[4-[5-cyano-6-[(1,3-dimethylpyrazol-4-yl)amino]-3-pyridyl]-2-fluorophenyl]-N-[5-[1-(trifluoromethyl)cyclopropyl]isoxazol-3-yl]acetamide]?
Answer: GI50 (BaF3-FLT3-ITD-F691L): 10 to 50 nM; GI50 (BaF3-FLT3-ITD-D835V): 10 to 50 nM

Question: With `COCCn1ncc(Nc2ncc(-c3ccc(CC(=O)Nc4cc(C5(C(F)(F)F)CC5)on4)c(F)c3)cn2)c1C1CC1` [P-204, 2-[4-[2-[[5-cyclopropyl-1-(2-methoxyethyl)pyrazol-4-yl]amino]pyrimidin-5-yl]-2-fluoro-phenyl]-N-[5-[1-(trifluoromethyl)cyclopropyl]isoxazol-3-yl]acetamide] as the compound, how does the GI50 (BaF3-FLT3-ITD-F691L) read?
Answer: 10 to 50 nM

Question: And the GI50 (BaF3-FLT3-ITD-D835V)?
Answer: 10 to 50 nM

Question: For `COc1cnccc1Nc1ncc(-c2ccc(CC(=O)Nc3cc(C4(C(F)(F)F)CC4)on3)c(F)c2)cn1` [P-105, 2-[2-fluoro-4-[2-[(3-methoxy-4-pyridyl)amino]pyrimidin-5-yl]phenyl]-N-[5-[1-(trifluoromethyl)cyclopropyl]isoxazol-3-yl]acetamide], which GI50 (BaF3-FLT3-ITD-F691L) is on record?
Answer: 10 to 50 nM

Question: What about the GI50 (BaF3-FLT3-ITD-D835V) of the same compound?
Answer: 50 to 100 nM
